Source: patent publication US12077503B2, “Substituted cyclic amides and their use as herbicides” (FMC CORPORATION, priority 2015, dated 2024)

Columns and labels:
Format in all cases: in vivo
[1] = test system: Galium (catchweed bedstraw, Galium aparine); assay: Test C preemergence; conditions: for Plant response rating, Galium: scale 0 to 100, 0 no effect, 100 complete control
Procedure, shortened: (§1)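 Scores of 0 to 100 reflect visual comparison with control plants, where 0 means no effect and 100 complete control, made 13 to 15 d after treatment. Application was preemergence to seeds in loam-sand soil or postemergence to plants 2 to 18 cm tall in peat-based mix, using a surfactant-containing solvent formulation.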

[2] = test system: barnyardgrass (Echinochloa crus-galli); assay: Test C preemergence; conditions: for Plant response rating, Barnyardgrass: scale 0 to 100, 0 no effect, 100 complete control
Procedure, shortened: as §1

[3] = test system: blackgrass (Alopecurus myosuroides); assay: Test C preemergence; conditions: for Plant response rating, Blackgrass: scale 0 to 100, 0 no effect, 100 complete control
Procedure, shortened: as §1

corn (Zea mays) = assay: Test C preemergence; conditions: for Plant response rating, Corn: scale 0 to 100, 0 no effect, 100 complete control
Procedure, shortened: as §1

[4] = test system: crabgrass, large (large crabgrass, Digitaria sanguinalis); assay: Test C preemergence; conditions: for Plant response rating, Crabgrass, Large: scale 0 to 100, 0 no effect, 100 complete control
Procedure, shortened: as §1

[5] = test system: foxtail, giant (giant foxtail, Setaria faberii); assay: Test C preemergence; conditions: for Plant response rating, Foxtail, Giant: scale 0 to 100, 0 no effect, 100 complete control
Procedure, shortened: as §1

[6] = test system: johnsongrass (Sorghum halepense); assay: Test C preemergence; conditions: for Plant response rating, Johnsongrass: scale 0 to 100, 0 no effect, 100 complete control
Procedure, shortened: as §1

[7] = test system: lambsquarters (Chenopodium album); assay: Test C preemergence; conditions: for Plant response rating, Lambsquarters: scale 0 to 100, 0 no effect, 100 complete control
Procedure, shortened: as §1

[8] = test system: morningglory (Ipomoea coccinea); assay: Test C preemergence; conditions: for Plant response rating, Morningglory: scale 0 to 100, 0 no effect, 100 complete control
Procedure, shortened: as §1

[9] = test system: nutsedge, yellow (yellow nutsedge, Cyperus esculentus); assay: Test C preemergence; conditions: for Plant response rating, Nutsedge, Yellow: scale 0 to 100, 0 no effect, 100 complete control
Procedure, shortened: as §1

[10] = test system: oilseed rape (Brassica napus); assay: Test C preemergence; conditions: for Plant response rating, Oilseed Rape: scale 0 to 100, 0 no effect, 100 complete control
Procedure, shortened: as §1

[11] = test system: pigweed (Amaranthus retroflexus); assay: Test C preemergence; conditions: for Plant response rating, Pigweed: scale 0 to 100, 0 no effect, 100 complete control
Procedure, shortened: as §1

[12] = test system: ragweed (common ragweed, Ambrosia elatior); assay: Test C preemergence; conditions: for Plant response rating, Ragweed: scale 0 to 100, 0 no effect, 100 complete control
Procedure, shortened: as §1

[13] = test system: ryegrass, Italian (Italian ryegrass, Lolium multiflorum); assay: Test C preemergence; conditions: for Plant response rating, Ryegrass, Italian: scale 0 to 100, 0 no effect, 100 complete control
Procedure, shortened: as §1

[14] = test system: velvetleaf (Abutilon theophrasti); assay: Test C preemergence; conditions: for Plant response rating, Velvetleaf: scale 0 to 100, 0 no effect, 100 complete control
Procedure, shortened: as §1

[15] = test system: waterhemp (common waterhemp, Amaranthus rudis); assay: Test C preemergence; conditions: for Plant response rating, Waterhemp: scale 0 to 100, 0 no effect, 100 complete control
Procedure, shortened: as §1

[16] = test system: wheat (winter wheat, Triticum aestivum); assay: Test C preemergence; conditions: for Plant response rating, Wheat: scale 0 to 100, 0 no effect, 100 complete control
Procedure, shortened: as §1

[17] = test system: ducksalad (Heteranthera limosa); assay: Test C flooded paddy test; conditions: Flood, 0 is no effect, 100 is complete control
Procedure, shortened: (§2)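 Scores express visual response relative to untreated controls, 0 meaning no effect and 100 complete control, assessed 13 to 15 d after treatment in the greenhouse. Compound went into water flooded 3 cm above soil around 2-leaf plants.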

rice (Oryza sativa) = assay: Test C flooded paddy test; conditions: Flood, 0 is no effect, 100 is complete control
Procedure, shortened: as §2

[18] = 31 g ai/ha, 0 is no effect, 100 is complete control

`CN1CC(c2cccc(OC(F)F)c2)C(C(=O)Nc2ccccc2F)C1=O` (stereo not shown) [Compound 618] was tested, and the “Plant response rating (scale of 0 to 100), Galium” value [1, 18] was 0, the “Plant response rating, Galium” value ([1]; 62 g ai/ha) was 0 and the “Plant response rating, Galium” value ([1]; 125 g ai/ha) was 85. For the same compound, the “Plant response rating, Galium” value ([1]; 250 g ai/ha) was 90, the “Plant response rating (scale of 0 to 100), Barnyardgrass” value [2, 18] was 95 and the “Plant response rating, Barnyardgrass” value ([2]; 62 g ai/ha) was 95. For the same compound, the “Plant response rating, Barnyardgrass” value ([2]; 125 g ai/ha) was 95, the “Plant response rating, Barnyardgrass” value ([2]; 250 g ai/ha) was 98 and the “Plant response rating (scale of 0 to 100), Blackgrass” value [3, 18] was 0. For the same compound, the “Plant response rating, Blackgrass” value ([3]; 62 g ai/ha) was 10, the “Plant response rating, Blackgrass” value ([3]; 125 g ai/ha) was 60 and the “Plant response rating, Blackgrass” value ([3]; 250 g ai/ha) was 80. For the same compound, the “Plant response rating (scale of 0 to 100), Corn” value (corn (Zea mays); [18]) was 30, the “Plant response rating, Corn” value (corn (Zea mays); 62 g ai/ha) was 50 and the “Plant response rating, Corn” value (corn (Zea mays); 125 g ai/ha) was 75. For the same compound, the “Plant response rating, Corn” value (corn (Zea mays); 250 g ai/ha) was 85, the “Plant response rating (scale of 0 to 100), Crabgrass, Large” value [4, 18] was 100 and the “Plant response rating, Crabgrass, Large” value ([4]; 62 g ai/ha) was 100. The “Plant response rating, Crabgrass, Large” value ([4]; 125 g ai/ha) was 100, the “Plant response rating, Crabgrass, Large” value ([4]; 250 g ai/ha) was 100 and the “Plant response rating (scale of 0 to 100), Foxtail, Giant” value [5, 18] was 90. The “Plant response rating, Foxtail, Giant” value ([5]; 62 g ai/ha) was 90, the “Plant response rating, Foxtail, Giant” value ([5]; 125 g ai/ha) was 90 and the “Plant response rating, Foxtail, Giant” value ([5]; 250 g ai/ha) was 95. The “Plant response rating (scale of 0 to 100), Johnsongrass” value [6, 18] was 20, the “Plant response rating, Johnsongrass” value ([6]; 62 g ai/ha) was 60 and the “Plant response rating, Johnsongrass” value ([6]; 125 g ai/ha) was 85. The “Plant response rating, Johnsongrass” value ([6]; 250 g ai/ha) was 85, the “Plant response rating (scale of 0 to 100), Lambsquarters” value [7, 18] was 50 and the “Plant response rating, Lambsquarters” value ([7]; 62 g ai/ha) was 50. For the same compound, the “Plant response rating, Lambsquarters” value ([7]; 125 g ai/ha) was 70, the “Plant response rating, Lambsquarters” value ([7]; 250 g ai/ha) was 75 and the “Plant response rating (scale of 0 to 100), Morningglory” value [8, 18] was 0. For the same compound, the “Plant response rating, Morningglory” value ([8]; 62 g ai/ha) was 0, the “Plant response rating, Morningglory” value ([8]; 125 g ai/ha) was 10 and the “Plant response rating, Morningglory” value ([8]; 250 g ai/ha) was 5. For the same compound, the “Plant response rating (scale of 0 to 100), Nutsedge, Yellow” value [9, 18] was 0, the “Plant response rating, Nutsedge, Yellow” value ([9]; 62 g ai/ha) was 0 and the “Plant response rating, Nutsedge, Yellow” value ([9]; 125 g ai/ha) was 0. For the same compound, the “Plant response rating, Nutsedge, Yellow” value ([9]; 250 g ai/ha) was 10, the “Plant response rating (scale of 0 to 100), Oilseed Rape” value [10, 18] was 60 and the “Plant response rating, Oilseed Rape” value ([10]; 62 g ai/ha) was 85. For the same compound, the “Plant response rating, Oilseed Rape” value ([10]; 125 g ai/ha) was 90, the “Plant response rating, Oilseed Rape” value ([10]; 250 g ai/ha) was 90 and the “Plant response rating (scale of 0 to 100), Pigweed” value [11, 18] was 40. For the same compound, the “Plant response rating, Pigweed” value ([11]; 62 g ai/ha) was 60, the “Plant response rating, Pigweed” value ([11]; 125 g ai/ha) was 60 and the “Plant response rating, Pigweed” value ([11]; 250 g ai/ha) was 75. The “Plant response rating (scale of 0 to 100), Ragweed” value [12, 18] was 40, the “Plant response rating, Ragweed” value ([12]; 62 g ai/ha) was 40 and the “Plant response rating, Ragweed” value ([12]; 125 g ai/ha) was 65. The “Plant response rating, Ragweed” value ([12]; 250 g ai/ha) was 80, the “Plant response rating (scale of 0 to 100), Ryegrass, Italian” value [13, 18] was 45 and the “Plant response rating, Ryegrass, Italian” value ([13]; 62 g ai/ha) was 50. For the same compound, the “Plant response rating, Ryegrass, Italian” value ([13]; 125 g ai/ha) was 45, the “Plant response rating, Ryegrass, Italian” value ([13]; 250 g ai/ha) was 55 and the “Plant response rating (scale of 0 to 100), Velvetleaf” value [14, 18] was 0. The “Plant response rating, Velvetleaf” value ([14]; 62 g ai/ha) was 5, the “Plant response rating, Velvetleaf” value ([14]; 125 g ai/ha) was 55 and the “Plant response rating, Velvetleaf” value ([14]; 250 g ai/ha) was 60. The “Plant response rating (scale of 0 to 100), Waterhemp” value [15, 18] was 60, the “Plant response rating, Waterhemp” value ([15]; 62 g ai/ha) was 60 and the “Plant response rating, Waterhemp” value ([15]; 125 g ai/ha) was 65. The “Plant response rating, Waterhemp” value ([15]; 250 g ai/ha) was 85, the “Plant response rating (scale of 0 to 100), Wheat” value [16, 18] was 20 and the “Plant response rating, Wheat” value ([16]; 62 g ai/ha) was 30. For the same compound, the “Plant response rating, Wheat” value ([16]; 125 g ai/ha) was 75, the “Plant response rating, Wheat” value ([16]; 250 g ai/ha) was 80 and the “Plant response rating (scale of 0 to 100), Ducksalad” value (“Plant response rating … Ducksalad” for short) ([17]; 31 g ai/ha) was 60. The “Plant response rating … Ducksalad” value ([17]; 62 g ai/ha) was 60, the “Plant response rating … Ducksalad” value ([17]; 125 g ai/ha) was 95 and the “Plant response rating … Ducksalad” value ([17]; 250 g ai/ha) was 100. For the same compound, the “Plant response rating (scale of 0 to 100), Rice” value (“Plant response rating … Rice” below) (rice (Oryza sativa); 31 g ai/ha) was 0, the “Plant response rating … Rice” value (rice (Oryza sativa); 62 g ai/ha) was 0 and the “Plant response rating … Rice” value (rice (Oryza sativa); 125 g ai/ha) was 15. For the same compound, the “Plant response rating … Rice” value (rice (Oryza sativa); 250 g ai/ha) was 15.
